test system: antibody (high specificity for atrazine); experiment: Cross-reactivity of triazines and other herbicides in competitive enzyme immunoassay (inhibition of enzyme tracer binding); parameters: species or system rabbits; details: Cross-activity at a concentration of 2 ppb; inhibition of the enzymatic detection system
Source text: For the preparation of an antibody A, which is preferably directed against the side [drawing 3] of the atrazine molecule, at first the methylthioether group of the triazine ametryn is sulfoxidized with peroxy acid and then the modified ametryn is coupled directly with the beef serum albumin. In the analogous way, for the development of an antibody B, which is preferentially directed against the side: [drawing 4] of the atrazine molecule, one of the ethylamino groups of the triazine simazine is bonded by the carbodiimide process to the protein. Lastly an antibody C which preferably responds to the side: [drawing 5] of the atrazine is produced by coupling the herbicide propazine via one of the isopropylamino groups with the carrier matrix.
The conjugates prepared as above are inoculated for the generation of antibodies A, B and C in laboratory animals (rabbits) which are then extracted from the sera of the immunized animals by known processes or by affinity chromatography by substituents according to formula (I).
The antibodies obtained are adsorbed on the polystyrene surface of the microtiter cavities. To this end, the antibodies are dissolved in carbonate buffer (Na2 CO3 /NaHCO3 : 50 mmol/liter; pH 9.6) and respectively 0.25 ml of the solution obtained is pipetted into the individual cavities of the microtiter plate. In the following incubation takes place overnight at room temperature and washing takes place next day with TBS buffer. The well covered plates are then stored dry at -20° C. For analysis 180 μl of the aqueous sample to be investigated (concentration of the substance investigated is from 1 μg/l to 200 mg/l) are poured into the cavities and respectively 50 μl enzyme tracer, a conjugate of alkaline phosphatase and a triazine, which is selected depending on the type of the antibody, are added in the cavities. If the detection is carried out with antibody A, ametryn is coupled with the enzyme, but if antibody B or antibody C are present, simazine or propazine are used.
The solutions are mixed by brief horizontal shaking of the microtiter plate. After a further incubation period of 1 hour at 20° C., by washing with TBS buffer (50 mmol/l tris-(hydroxymethyl)-aminomethane, 1 mmol/l MgCl2, 50 mmol/l NaCl, pH 7.8 with HCl, 0.05% of polyoxyethylene sorbitan monooleate) all the molecules which are not bonded on the antibody positions are removed. For the quantitative detection of the bonded enzyme tracer, respectively 125 μl phosphatase substrate solution (1 mg p-nitrophenylphosphate per ml carbonate buffer) are poured into the individual cavities. The enzyme reaction takes place at 20° C., but can be accelerated by incubation at higher temperature. The absorption of the solution in the individual cavities is measured by a vertical ray photometer on the wavelength […]. If it is wished to move into the range of higher sensitivities, overnight incubation at 4° C. is recommended. But it must be recalled that without special demands on reagent, device and spatial unit reproducible results in the ppt range are not attainable. The computation of the antigen concentration of the sample is based on the following background. The enzyme tracer bonds at first with the free antibody bonding positions, which are left over after incubation with the sample antigen. Thus in the presence of high concentrations of sample antigen only few enzyme tracers are bonded, but with lower concentration of sample antigens, on the other hand, many enzyme tracers are bonded. The amount of the bonded enzyme tracer is therefore a function of the sample antigen concentration. The absorption of the reacted substrate amount (color reaction from colorless to yellow) is used as the measurement magnitude for the bonding of the enzyme tracer.
Absorption ratio of unknown sample (B=AB AuB) and zero sample (BO=ABO -AuB):
B/BO=(AB -AuB l)/(ABO -AuB) […]

SMILES | inhibition (%)
Cc1cccc(C)c1N(Cn1cccn1)C(=O)CCl [metazachlor] | 15.2
CCNc1nc(NC(C)C)nc(SC)n1 [ametryn] | 21.4
CSc1nnc(C(C)(C)C)c(=O)n1N [metribuzine] | 6.7
CCC(C)n1c(=O)[nH]c(C)c(Br)c1=O (stereo not drawn) [bromazile] | 11.1
CCNc1nc(Cl)nc(NC(C)C)n1 [atrazine, 2-chloro-4-ethylamino-6-isopropylamino-1,3,5-triazine] | 6.0
O=C(Oc1ccccc1)n1c(C(F)(F)F)nc2cc(Cl)c(Cl)cc21 [fenazaflor] | 4.4
CSc1nc(N)nc(NC(C)C)n1 [desethylametryn] | 16.8
CCNc1nc(N)nc(SC)n1 [desisopropylametryn] | 16.5
CNC(=O)N(C)c1nc2ccccc2s1 [metabenzthiazuron] | 8.3
